Test results from patent publication US20080200403A1, “9A-Carbamoyl and Thiocarbamoyl Azalides with Anti-Inflammatory Activity” (GLAXOSMITHKLINE, priority 2005, published 2008).
Read-outs that look alike come from different tables or passages of the source.

Key:
Type in all cases: cell-based
[1] = tested on: human peripheral blood mononuclear cells (PBMC); assay: Human T-cell proliferation in vitro (3H-thymidine incorporation); settings: for inhibition at 10 µM / inhibition at 50 µM: Homo sapiens, PBMC, read-out: Percentage of inhibition of proliferation of stimulated PBMC
Procedure: Influence of substances at two different concentrations (50 μM and 10 μM) on cell proliferation of human peripheral blood mononuclear cells (PBMC) was assessed.
Heparinized peripheral blood was obtained from healthy donors, and PBMC were isolated by Histopaque 1077 (Sigma, USA) density centrifugation at 400×g for 30 minutes. 5×10^4 cells/well were cultured for 3 days in the RPMI medium as described above, in the presence (positive control) or absence (negative control) of stimulators [PHA (2.5 μg/mL) (Sigma, USA), or both PMA (10 ng/mL) (Sigma, USA) and ionomycin (500 ng/mL) (Calbiochem, USA)], and in the presence of the test compounds, at 37° C. in an atmosphere of 5% CO2 and 90% humidity. The cells were pulsed with 1 μCi of ^3H-thymidine (Amersham, USA) per well during the last 18 h of the culture, and were harvested on the 96-well filter (Packard Bioscience, USA) using a multiple cell harvester (Packard, USA). The incorporation of ^3H-thymidine in activated cells were measured using TopCount NXT (Packard, USA).
Inhibition (as percentage) was calculated using the following formula: % inhibition=(1−(^3H)thymidine incorporation expressed in counts per minute (cpm) in sample/(^3H)thymidine incorporation expressed in cpm in positive control)×100
where positive control refers to stimulated samples, not treated with substances.

IL-8 = assay: Inhibition of IL-8 production by stimulated human peripheral blood leukocytes in vitro; settings: PBL; for inhibition at 10 µM / inhibition at 50 µM: Homo sapiens, Leukocyte, read-out: Percentage of inhibition of IL-8 production
Procedure: (§1) Test substances used in in vitro experiments were dissolved in dimethyl sulfoxide (DMSO) (Kemika, Croatia) at concentrations of 50 mM and 10 mM, and were further diluted to final concentrations of 50 μM and 10 μM in 1 mL Dulbecco's modified Eagle medium (DMEM) supplemented with 1% heat inactivated fetal bovine serum (FBS), 1% L-glutamine, 50 U/ml penicillin, 50 μg/ml streptomycin and 2.5 μg/mL Fungizone (amphotericin B). Media and all media supplements were purchased from Gibco, Australia, except the FBS was purchased from Sigma, USA.
(§2) Peripheral blood leukocytes (PBL) were obtained from venous blood of healthy volunteers by sedimentation on 2% dextran T-500 (Amersham Biosciences, USA) and subsequent centrifugations of leukocyte rich plasma.
(§3) Peripheral blood leukocytes (PBL), isolated as described above, were seeded in a 48-well plate at a concentration of 3 to 5×10^6 cell per well in culture medium consisting of RPMI 1640 medium (Institute of Immunology, Croatia) supplemented with 10% heat-inactivated fetal calf serum (FCS, Biowhittaker, USA), 100 U/ml penicillin (Gibco, Australia), 100 μg/ml streptomycin (Gibco, Australia) and 2 mM L-glutamine (Gibco, Australia), and preincubated with the test compounds for 2 h at 37° C., in an atmosphere of 5% CO2, and 90% humidity. Then, stimuli (Sigma, USA) were added to a final concentration of 2 μg/mL lipopolysaccharide (LPS), 1 μg/mL phorbol 12-myristate 13-acetate (PMA) or 120 μg/mL zymosan. Samples were incubated overnight under conditions described above. At the end of incubation, the supernatants were transferred to eppendorf tubes and centrifuged for 10 min at 1500×g. Concentrations of human TNF-α, IL-1β, IL-6 and IL-8 were determined in cell supernatants by sandwich ELISA, using capture and detection antibodies (R&D Systems, Minneapolis, Minn.) according to the manufacturer's recommendations.
(§4) Inhibition (as percentage) was calculated using the following formula: % inhibition=(1−concentration of cytokines in sample/concentration of cytokines in positive control)×100. The positive control refers to stimulated samples, not treated with substances.

TNF-α = assay: Inhibition of TNF-α production by stimulated human peripheral blood leukocytes in vitro; settings: PBL; for inhibition at 10 µM / inhibition at 50 µM: Homo sapiens, Leukocyte, read-out: Percentage of inhibition of TNF-α production
Procedure: as §1, §2, §3, §4

IL-6 = assay: Inhibition of IL-6 production by stimulated human peripheral blood leukocytes in vitro; settings: PBL; for inhibition at 10 µM / inhibition at 50 µM: Homo sapiens, Leukocyte, read-out: Percentage of inhibition of IL-6 production
Procedure: as §1, §2, §3, §4

IL-1α = assay: Inhibition of IL-1 production by stimulated human peripheral blood leukocytes in vitro; settings: PBL; for inhibition at 10 µM / inhibition at 50 µM: Homo sapiens, Leukocyte, read-out: Percentage of inhibition of IL-1α production
[2] = PMA + ionomycin stimulated, compound 10 μM
[3] = PMA + ionomycin stimulated, compound 50 μM
[4] = zymosan stimulated, compound 10 μM
[5] = zymosan stimulated, compound 50 μM

Structure (SMILES): CC[C@H]1OC(=O)[C@H](C)[C@@H](O)[C@H](C)[C@@H](O[C@@H]2O[C@H](C)C[C@H](N(C)C)[C@H]2O)[C@](C)(O)C[C@@H](C)CN(C(=O)Nc2cccc(C(F)(F)F)c2)[C@H](C)[C@@H](O)[C@]1(C)O [Compound 13]
- inhibition at 10 µM ([1]; PHA stimulated, compound 10 μM): 11%
- inhibition at 50 µM ([1]; PHA stimulated, compound 50 μM): 42%
- inhibition at 10 µM [1, 2]: 21%
- inhibition at 50 µM [1, 3]: 43%
- inhibition at 10 µM (IL-8; LPS stimulated, compound 10 μM): 0%
- inhibition at 50 µM (IL-8; LPS stimulated, compound 50 μM): 0%
- inhibition at 10 µM (IL-8; PMA stimulated, compound 10 μM): 0%
- inhibition at 50 µM (IL-8; PMA stimulated, compound 50 μM): 25%
- inhibition at 10 µM (IL-8; [4]): 62%
- inhibition at 50 µM (IL-8; [5]): 0%
- inhibition at 10 µM (TNF-α; LPS stimulated, compound 10 μM): 0%
- inhibition at 50 µM (TNF-α; LPS stimulated, compound 50 μM): 0%
- inhibition at 10 µM (TNF-α; PMA stimulated, compound 10 μM): 0%
- inhibition at 50 µM (TNF-α; PMA stimulated, compound 50 μM): 0%
- inhibition at 10 µM (TNF-α; [4]): 0%
- inhibition at 50 µM (TNF-α; [5]): 52%
- inhibition at 10 µM (IL-6; LPS stimulated, compound 10 μM): 0%
- inhibition at 50 µM (IL-6; LPS stimulated, compound 50 μM): 0%
- inhibition at 10 µM (IL-6; PMA stimulated, compound 10 μM): 84%
- inhibition at 50 µM (IL-6; PMA stimulated, compound 50 μM): 100%
- inhibition at 10 µM (IL-6; [4]): 52%
- inhibition at 50 µM (IL-6; [5]): 94%
- inhibition at 10 µM (IL-1α; LPS stimulated, compound 10 μM): 0%
- inhibition at 50 µM (IL-1α; LPS stimulated, compound 50 μM): 52%
- inhibition at 10 µM (IL-1α; PMA stimulated, compound 10 μM): 0%
- inhibition at 50 µM (IL-1α; PMA stimulated, compound 50 μM): 32%
- inhibition at 10 µM (IL-1α; [4]): 34%
- inhibition at 50 µM (IL-1α; [5]): 89%

Structure (SMILES): CC[C@H]1OC(=O)[C@H](C)[C@@H](O)[C@H](C)[C@@H](O[C@@H]2O[C@H](C)C[C@H](N(C)C)[C@H]2O)[C@](C)(O)C[C@@H](C)CN(C(=O)NCc2ccccc2)[C@H](C)[C@@H](O)[C@]1(C)O [Compound 8]
- Percentage of inhibition of proliferation of stimulated PBMC ([1]; PHA stimulated, compound 10 μM): 0%
- Percentage of inhibition of proliferation of stimulated PBMC ([1]; PHA stimulated, compound 50 μM): 0%
- Percentage of inhibition of proliferation of stimulated PBMC [1, 2]: 0%
- Percentage of inhibition of proliferation of stimulated PBMC [1, 3]: 0%
- Percentage of inhibition of IL-8 production (IL-8; LPS stimulated, compound 10 μM): 48%
- Percentage of inhibition of IL-8 production (IL-8; LPS stimulated, compound 50 μM): 0%
- Percentage of inhibition of IL-8 production (IL-8; PMA stimulated, compound 10 μM): 37%
- Percentage of inhibition of IL-8 production (IL-8; PMA stimulated, compound 50 μM): 0%
- Percentage of inhibition of IL-8 production (IL-8; [4]): 0%
- Percentage of inhibition of IL-8 production (IL-8; [5]): 0%
- Percentage of inhibition of TNF-α production (TNF-α; LPS stimulated, compound 10 μM): 58%
- Percentage of inhibition of TNF-α production (TNF-α; LPS stimulated, compound 50 μM): 30%
- Percentage of inhibition of TNF-α production (TNF-α; PMA stimulated, compound 10 μM): 56%
- Percentage of inhibition of TNF-α production (TNF-α; PMA stimulated, compound 50 μM): 54%
- Percentage of inhibition of TNF-α production (TNF-α; [4]): 16%
- Percentage of inhibition of TNF-α production (TNF-α; [5]): 0%
- Percentage of inhibition of IL-6 production (IL-6; LPS stimulated, compound 10 μM): 60%
- Percentage of inhibition of IL-6 production (IL-6; LPS stimulated, compound 50 μM): 82%
- Percentage of inhibition of IL-6 production (IL-6; [4]): 20%
- Percentage of inhibition of IL-6 production (IL-6; [5]): 18%
- Percentage of inhibition of IL-1α production (IL-1α; LPS stimulated, compound 10 μM): 42%
- Percentage of inhibition of IL-1α production (IL-1α; LPS stimulated, compound 50 μM): 40%
- Percentage of inhibition of IL-1α production (IL-1α; PMA stimulated, compound 10 μM): 26%
- Percentage of inhibition of IL-1α production (IL-1α; PMA stimulated, compound 50 μM): 0%
- Percentage of inhibition of IL-1α production (IL-1α; [4]): 16%
- Percentage of inhibition of IL-1α production (IL-1α; [5]): 17%

Structure (SMILES): CC[C@H]1OC(=O)[C@H](C)[C@@H](O[C@H]2C[C@@](C)(OC)[C@@H](O)[C@H](C)O2)[C@H](C)[C@@H](O[C@@H]2O[C@H](C)C[C@H](N(C)C)[C@H]2O)[C@](C)(O)C[C@@H](C)CN(C(=S)Nc2cccc(Br)c2)[C@H](C)[C@@H](O)[C@]1(C)O [Compound 6]
- inhibition at 10 µM ([1]; PHA stimulated, compound 10 μM): 0%
- inhibition at 50 µM ([1]; PHA stimulated, compound 50 μM): 100%
- inhibition at 10 µM [1, 2]: 0%
- inhibition at 50 µM [1, 3]: 100%
- inhibition at 10 µM (IL-8; LPS stimulated, compound 10 μM): 43%
- inhibition at 50 µM (IL-8; LPS stimulated, compound 50 μM): 100%
- inhibition at 10 µM (IL-8; PMA stimulated, compound 10 μM): 23%
- inhibition at 50 µM (IL-8; PMA stimulated, compound 50 μM): 100%
- inhibition at 10 µM (IL-8; [4]): 41%
- inhibition at 50 µM (IL-8; [5]): 71%
- inhibition at 10 µM (TNF-α; LPS stimulated, compound 10 μM): 74%
- inhibition at 50 µM (TNF-α; LPS stimulated, compound 50 μM): 100%
- inhibition at 10 µM (TNF-α; PMA stimulated, compound 10 μM): 73%
- inhibition at 50 µM (TNF-α; PMA stimulated, compound 50 μM): 100%
- inhibition at 10 µM (TNF-α; [4]): 36%
- inhibition at 50 µM (TNF-α; [5]): 98%
- inhibition at 10 µM (IL-6; LPS stimulated, compound 10 μM): 59%
- inhibition at 50 µM (IL-6; LPS stimulated, compound 50 μM): 100%
- inhibition at 10 µM (IL-6; [4]): 6%
- inhibition at 50 µM (IL-6; [5]): 100%
- inhibition at 10 µM (IL-1α; LPS stimulated, compound 10 μM): 64%
- inhibition at 50 µM (IL-1α; LPS stimulated, compound 50 μM): 98%
- inhibition at 10 µM (IL-1α; PMA stimulated, compound 10 μM): 79%
- inhibition at 50 µM (IL-1α; PMA stimulated, compound 50 μM): 100%
- inhibition at 10 µM (IL-1α; [4]): 67%
- inhibition at 50 µM (IL-1α; [5]): 89%
